Source: the NIST ThermoML archive (doi:10.1021/je100083w)

Settings: Liquid, Bellows volumetry

O [water]
Settings	specific volume [m3/kg]
253.56 K, 298200 kPa	0.0008917
253.56 K, 325300 kPa	0.0008857
253.56 K, 349800 kPa	0.0008804
253.58 K, 223600 kPa	0.0009109
253.58 K, 223700 kPa	0.000911
253.58 K, 273300 kPa	0.0008978
253.58 K, 273600 kPa	0.0008977
253.58 K, 323500 kPa	0.000886
253.6 K, 249400 kPa	0.0009039
253.6 K, 298400 kPa	0.0008918
253.61 K, 248900 kPa	0.0009041
253.63 K, 349100 kPa	0.0008803
253.64 K, 223700 kPa	0.000911
253.64 K, 248300 kPa	0.0009041
253.65 K, 299600 kPa	0.000891
253.67 K, 349800 kPa	0.00088
253.68 K, 273300 kPa	0.0008975
253.69 K, 325300 kPa	0.0008852
253.83 K, 323300 kPa	0.0008861
253.83 K, 349500 kPa	0.0008803
253.86 K, 273400 kPa	0.0008977
253.86 K, 298200 kPa	0.0008918
253.87 K, 248600 kPa	0.0009042
253.9 K, 223600 kPa	0.000911
258.37 K, 198400 kPa	0.00092
258.37 K, 248400 kPa	0.0009059
258.38 K, 274900 kPa	0.0008992
258.4 K, 174000 kPa	0.0009274
258.41 K, 223300 kPa	0.0009127
258.45 K, 299600 kPa	0.0008933
258.46 K, 348900 kPa	0.0008821
258.52 K, 323300 kPa	0.0008877
258.52 K, 324100 kPa	0.0008879
258.53 K, 275300 kPa	0.0008991
258.54 K, 249300 kPa	0.0009057
258.54 K, 298500 kPa	0.0008935
258.55 K, 225000 kPa	0.0009123
258.58 K, 174100 kPa	0.0009275
258.58 K, 349500 kPa	0.0008815
258.59 K, 199300 kPa	0.0009197
258.59 K, 223500 kPa	0.0009124
258.6 K, 198200 kPa	0.0009199
258.6 K, 248400 kPa	0.0009053
258.6 K, 273300 kPa	0.0008992
258.6 K, 323400 kPa	0.0008873
258.6 K, 348800 kPa	0.0008828
258.61 K, 198500 kPa	0.0009196
258.61 K, 223400 kPa	0.0009121
258.61 K, 299200 kPa	0.0008928
258.64 K, 223300 kPa	0.0009126
258.64 K, 248500 kPa	0.0009056
258.65 K, 248300 kPa	0.0009047
258.65 K, 274500 kPa	0.0008977
258.65 K, 299500 kPa	0.0008914
258.66 K, 198400 kPa	0.0009199
258.67 K, 174000 kPa	0.0009274
258.68 K, 173500 kPa	0.0009277
258.68 K, 223300 kPa	0.0009118
258.7 K, 174400 kPa	0.0009274
258.75 K, 199500 kPa	0.000919
258.76 K, 173800 kPa	0.0009274
263.51 K, 299100 kPa	0.0008953
263.52 K, 350000 kPa	0.0008839
263.58 K, 298900 kPa	0.0008957
263.6 K, 249800 kPa	0.0009078
263.61 K, 248800 kPa	0.0009077
263.62 K, 149500 kPa	0.0009371
263.64 K, 198700 kPa	0.0009216
263.64 K, 248800 kPa	0.0009078
263.64 K, 298000 kPa	0.0008957
263.64 K, 349900 kPa	0.0008842
263.65 K, 198400 kPa	0.0009219
263.69 K, 149400 kPa	0.0009369
263.69 K, 198600 kPa	0.0009216
263.69 K, 349100 kPa	0.0008847
263.75 K, 149200 kPa	0.000937
268.42 K, 99500 kPa	0.0009558
268.47 K, 149200 kPa	0.0009384
268.47 K, 248700 kPa	0.0009095
268.47 K, 300200 kPa	0.000897
268.47 K, 348900 kPa	0.0008867
268.48 K, 199300 kPa	0.0009231
268.48 K, 298400 kPa	0.0008977
268.48 K, 349100 kPa	0.0008861
268.51 K, 149700 kPa	0.0009382
268.51 K, 249100 kPa	0.0009096
268.52 K, 149700 kPa	0.0009382
268.52 K, 198400 kPa	0.0009234
268.52 K, 249000 kPa	0.0009097
268.53 K, 198800 kPa	0.0009234
268.55 K, 99400 kPa	0.0009559
268.55 K, 298900 kPa	0.0008975
268.58 K, 99800 kPa	0.0009557
268.6 K, 348900 kPa	0.0008866
273.32 K, 69100 kPa	0.0009686
273.38 K, 298800 kPa	0.0008991
273.4 K, 349400 kPa	0.0008876
273.44 K, 149100 kPa	0.0009398
273.46 K, 99300 kPa	0.0009569
273.48 K, 69100 kPa	0.0009688
273.51 K, 199000 kPa	0.0009249
273.52 K, 69100 kPa	0.0009682
273.52 K, 149000 kPa	0.0009392
273.52 K, 249000 kPa	0.0009109
273.53 K, 99100 kPa	0.0009564
273.55 K, 198900 kPa	0.0009242
273.56 K, 98600 kPa	0.0009574
273.57 K, 149100 kPa	0.00094
273.57 K, 249100 kPa	0.0009117
273.63 K, 249300 kPa	0.000912
273.65 K, 298900 kPa	0.0008999
273.67 K, 199000 kPa	0.0009252
273.68 K, 348800 kPa	0.0008889
273.74 K, 298900 kPa	0.0009003
273.82 K, 350400 kPa	0.0008893
283.33 K, 199000 kPa	0.000928
283.36 K, 69000 kPa	0.0009704
283.39 K, 298700 kPa	0.0009035
283.43 K, 249000 kPa	0.000915
283.43 K, 349100 kPa	0.0008928
283.47 K, 199000 kPa	0.0009281
283.48 K, 149100 kPa	0.0009425
283.49 K, 149300 kPa	0.0009423
283.5 K, 69200 kPa	0.0009702
283.5 K, 248900 kPa	0.0009152
283.51 K, 98900 kPa	0.0009592
283.51 K, 99000 kPa	0.0009591
283.52 K, 148800 kPa	0.0009426
283.53 K, 198900 kPa	0.000928
283.54 K, 69000 kPa	0.0009703
283.54 K, 249100 kPa	0.0009148
283.56 K, 299300 kPa	0.0009032
283.6 K, 299000 kPa	0.0009038
283.62 K, 349300 kPa	0.0008926
283.7 K, 99000 kPa	0.0009592
283.72 K, 348000 kPa	0.0008941
293.2 K, 249000 kPa	0.0009188
293.22 K, 299000 kPa	0.0009073
293.23 K, 149200 kPa	0.0009458
293.25 K, 199000 kPa	0.0009316
293.28 K, 99300 kPa	0.0009619
293.31 K, 349200 kPa	0.000897
293.34 K, 349300 kPa	0.0008968
293.35 K, 69300 kPa	0.0009728
293.38 K, 299400 kPa	0.0009073
293.39 K, 199400 kPa	0.0009315
293.39 K, 249000 kPa	0.0009189
293.4 K, 99100 kPa	0.000962
293.41 K, 149100 kPa	0.0009458
293.42 K, 68900 kPa	0.0009729
293.46 K, 199100 kPa	0.0009322
293.47 K, 99200 kPa	0.0009625
293.49 K, 148800 kPa	0.0009465
293.5 K, 100 kPa	0.001002
293.52 K, 248900 kPa	0.0009196
293.53 K, 100 kPa	0.001002
293.53 K, 349200 kPa	0.0008974
293.54 K, 299000 kPa	0.000908
293.55 K, 100 kPa	0.001002
293.6 K, 69200 kPa	0.0009732
303.35 K, 98500 kPa	0.0009655
303.37 K, 69200 kPa	0.0009758
303.4 K, 98900 kPa	0.0009651
303.4 K, 148900 kPa	0.000949
303.41 K, 198900 kPa	0.0009347
303.42 K, 68900 kPa	0.0009761
303.42 K, 69800 kPa	0.0009757
303.43 K, 248900 kPa	0.000922
303.48 K, 99200 kPa	0.0009653
303.48 K, 149000 kPa	0.0009492
303.49 K, 299100 kPa	0.0009104
303.51 K, 149100 kPa	0.0009494
303.52 K, 349300 kPa	0.0008999
303.55 K, 299100 kPa	0.000911
303.56 K, 199000 kPa	0.000935
303.57 K, 198800 kPa	0.0009353
303.57 K, 248800 kPa	0.0009226
303.57 K, 249300 kPa	0.0009222
303.61 K, 299200 kPa	0.0009108
303.63 K, 349200 kPa	0.0009004
303.72 K, 349100 kPa	0.0009003
313.38 K, 149300 kPa	0.0009528
313.38 K, 349300 kPa	0.0009051
313.39 K, 69100 kPa	0.0009801
313.39 K, 98800 kPa	0.000969
313.39 K, 148800 kPa	0.0009534
313.4 K, 69100 kPa	0.0009799
313.4 K, 98600 kPa	0.0009695
313.4 K, 199200 kPa	0.0009386
313.41 K, 99000 kPa	0.0009696
313.42 K, 149000 kPa	0.0009538
313.42 K, 198900 kPa	0.0009393
313.43 K, 69000 kPa	0.0009796
313.44 K, 249300 kPa	0.0009265
313.44 K, 299600 kPa	0.0009155
313.44 K, 348900 kPa	0.000904
313.45 K, 248900 kPa	0.0009271
313.46 K, 199100 kPa	0.0009397
313.46 K, 249200 kPa	0.0009259
313.46 K, 299400 kPa	0.0009151
313.46 K, 349500 kPa	0.0009046
313.48 K, 299700 kPa	0.0009144
323.04 K, 248700 kPa	0.0009318
323.09 K, 198800 kPa	0.0009435
323.13 K, 299200 kPa	0.0009196
323.17 K, 249000 kPa	0.0009307
323.17 K, 349400 kPa	0.0009091
323.19 K, 299100 kPa	0.0009191
323.21 K, 349000 kPa	0.0009095
323.25 K, 248900 kPa	0.0009312
323.26 K, 298400 kPa	0.0009203
323.28 K, 199000 kPa	0.0009438
323.3 K, 149300 kPa	0.0009578
323.31 K, 99100 kPa	0.0009737
323.33 K, 69200 kPa	0.0009842
323.34 K, 198300 kPa	0.0009446
323.34 K, 349300 kPa	0.0009085
323.35 K, 68300 kPa	0.0009846
323.35 K, 149000 kPa	0.0009578
323.37 K, 99600 kPa	0.0009736
323.41 K, 149200 kPa	0.0009584
323.43 K, 99200 kPa	0.0009742
323.46 K, 68800 kPa	0.0009848
